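Where inhibition never reached the appropriate level, the endpoint shown equals the highest concentration tested. Otherwise, values were interpolated linearly from a five-concentration, 48-hour dose response in 96-well plates. TGI denotes the concentration required for complete inhibition of growth.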
Columns and labels:
Experiment in all cases: NCI tumour cell line growth inhibition, 48 h
DLD-1 colon = tested on: DLD-1 colon
HOP-18 NSCLC = tested on: HOP-18 NSCLC
LXFL 529 NSCLC = tested on: LXFL 529 NSCLC
RXF-631 renal = tested on: RXF-631 renal
DMS 273 small cell lung = tested on: DMS 273 small cell lung
XF 498 CNS = tested on: XF 498 CNS
P388/ADR leukemia = tested on: P388/ADR leukemia

Compound	TGI (DLD-1 colon)	TGI (HOP-18 NSCLC)	TGI (LXFL 529 NSCLC)	TGI (RXF-631 renal)	TGI (DMS 273 small cell lung)	TGI (XF 498 CNS)	TGI (P388/ADR leukemia)
COc1ccc(N2C(=O)/C(=C(\C)c3cc4ccccc4oc3=O)N=C2c2cc([N+](=O)[O-])ccc2Cl)cc1	> 100 µM	> 100 µM	> 100 µM	> 100 µM			
CC(C)(C)[Si](OC1CC(n2cnc3c(N)ncnc32)OC1CO)(c1ccccc1)c1ccccc1 (centres undefined)	30 µM	> 100 µM	> 100 µM		35.8 µM	51.3 µM	
O=C(O)c1ccc(Nc2c3ccccc3nc3ccccc23)cc1		> 100 µM			> 100 µM		98.4 µM
COc1ccc(C2COc3cc(OC(C)=O)c(OC(C)=O)cc3C2)cc1 (centres undefined)	54.8 µM	19.3 µM			52.7 µM	23.9 µM	17.7 µM
CC(=O)N(C)c1ccc(Nc2cc(C)[nH]c3ccc4ncnc4c23)cc1	74.2 µM	53.1 µM			24.3 µM	5.92 µM	228 µM
O=C1C(Cl)N(c2ccc(Cl)cc2)C1c1c[nH]c2ccccc12 (centres undefined)			30.2 µM			31.3 µM	
